Like-named read-outs stand apart in the source and are kept apart here.
Legend:
[1] = system: human colon cancer xenograft model SW620; assay: CRC xenograft model, ATM inhibitors in combination with irinotecan; type: in vivo, mice
Protocol: Animals were treated with three 1-week cycles of a combination of irinotecan and the respective ATM inhibitors, or the respective monotherapy control arms. One cycle consisted of one irinotecan application (ip) at a dose of 50 mg/kg, followed by 100, and 50 mg/kg of ATMi 1, or 10 and 25 mg/kg of ATMi 2 (po) 24 h later and for four subsequent days.

colon cancer cell line [2] = assay: GI50 of SN38 and of the combination with ATMi2; type: cell-based
colon cancer cell line [3] = assay: Immunogenic cell death induction (calreticulin, HSP70, HSP90 surface expression, ATP and HMGB1 release, caspase-3/7); type: cell-based
Protocol: […]. The inhibitor for ATM and SN38 were tested as single agents and in combination at the concentrations of the GI50 of the combination. The GI50 of SN38 was included as a positive control for induction of immunogenic cell death. […] Cell surface expression of calreticulin, HSP70 and HSP90 was analysed by Flow Cytometry, ATP secretion by ATPlite assay Perkin Elmer, HMGB1 release by HMGB1 Elisa (IBL International) and apoptosis by Caspase-Glo 3/7 Assay Systems (measures caspase-3/7 activities).
Analyses of DAMPs (Calreticulin, HSP70, HSP90, HMGB1 and ATP) were carried out whithin the same sample. Cells were treated 24 hours after seeding and analyses performed 72 hours post-treatment. Cells were used for FACS analyses and supenatants for ATP and HMGB1 measurements. Caspase-Glo 3/7 was carried out in parallel following the same treatment schedule.
For FACS analyses, an unstained sample was used as a gating control and an isotype sample to measure unspecific antibody binding. % PE positive cells represent cells with cell surface expression of the tested marker (all markers were conjugated with PE and tested independently). ATP secretion, HMGB1 release and apoptosis were carried out accordingly to the protocols provided by the commercial supplier (data represented as the average of two independent biological repeats).

[4] = combination ATMi 2 25 mg/kg + irinotecan, d28
[5] = combination ATMi 2 25 mg/kg po + irinotecan 50 mg/kg ip, day 21

SMILES: COc1cc2ncc3c(c2cc1-c1cn(C)nc1C)n(-c1c(F)cncc1OC)c(=O)n3C [ATMi 2, 8-(1,3-Dimethyl-1H-pyrazol-4-yl)-1-(3-fluoro-5-methoxy-pyridin-4-yl)-7-methoxy-3-methyl-1,3-dihydro-imidazo[4,5-c]quinolin-2-one]
- partial responses (tumor volume >30% decrease) [1, 4]: 2/10
- stable diseases (tumor volume change between 30% decrease and 73% increase) [1, 4]: 3/10
- animals progression free (<73% increase in tumor volume compared to starting volume) ([1]; combination ATMi 2 25 mg/kg + irinotecan, d28, one week after stop of treatment): 5/10
- decrease of mean tumor volume compared to starting volume [1, 5]: ~87%
- mean tumor volume [1, 5]: 53 mm^3
- GI50 (colon cancer cell line [2]; in combination with 0.4 nM SN38, read-out: GI50 of the combination (ATMi2 concentration)): 250 nM
- induction of immunogenic cell death (colon cancer cell line [3]; ATMi2 single agent at 250 nM, 72 hours post-treatment): not
- induction of immunogenic cell death (colon cancer cell line [3]; combination 250 nM ATMi2 + 0.4 nM SN38, 72 hours post-treatment): clear induction of immunogenic cell death

SMILES: CCc1c2c(nc3ccc(O)cc13)-c1cc3c(c(=O)n1C2)COC(=O)[C@]3(O)CC [SN38, reference compound]
- GI50 (colon cancer cell line [2]; SN38 as single agent, read-out: GI50): 2 nM
- GI50 (colon cancer cell line [2]; in combination with 250 nM ATMi2, read-out: GI50 of the combination (SN38 concentration)): 0.4 nM
- induction of immunogenic cell death (colon cancer cell line [3]; SN38 at its GI50 (2 nM), 72 hours post-treatment): clear induction of immunogenic cell death
- induction of immunogenic cell death (colon cancer cell line [3]; SN38 single agent at 0.4 nM, 72 hours post-treatment): not

SMILES: CCc1c2c(nc3ccc(OC(=O)N4CCC(N5CCCCC5)CC4)cc13)-c1cc3c(c(=O)n1C2)COC(=O)[C@]3(O)CC [irinotecan, reference compound]
- disease status ([1]; irinotecan arm, day 28): all animals showed progressive disease
